From patent US8716292B2, “Riminophenazines with 2-(heteroaryl)amino substituents and their anti-microbial activity” (priority 2010, dated 2014)
Values after ≈ are worked out from the molar mass of the structure shown.

tested on: Mycobacterium tuberculosis H37Rv strains; experiment: In vitro assay for antimicrobial susceptibility (microplate Alamar blue MIC); format: cell-based; conditions: Mycobacterium tuberculosis, H37RV, 7H9, Alamar blue, inhibition ≧90%; read-out: MIC (μg/mL) against H37Rv

SMILES	MIC [µg/mL]
COC1CCC(/N=c2\cc3n(-c4ccc(Cl)cc4)c4ccccc4nc-3cc2Nc2cnccn2)CC1 (centres unmarked) [TBI-1091, 5-(4-Chlorophenyl)-3-(4-methoxycyclohexyl)imino-2-(pyrazin-2-yl)amino-3,5-dihydrophenazine]	0.018 (≈ 0.0352 µM)
CC(C)/N=c1\cc2n(-c3ccc(F)c(F)c3)c3ccccc3nc-2cc1Nc1cnccn1 [TBI-1446, 5-(3,4-Difluorophenyl)-3-(1-methylethyl)imino-2-(pyrazin-2-yl)amino-3,5-dihydrophenazine]	0.03 (≈ 0.0678 µM)
Fc1ccc(-n2c3c/c(=N\C4CCOCC4)c(Nc4ccccn4)cc-3nc3ccccc32)cc1 [TBI-1087, 5-(4-Fluorophenyl)-3-(4-tetrahydropyranyl)imino-2-(2-pyridyl)amino-3,5-dihydrophenazine]	0.028 (≈ 0.0601 µM)
Clc1cccc(-n2c3c/c(=N\C4CCOCC4)c(Nc4cncnc4)cc-3nc3ccccc32)c1 [TBI-980, 5-(3-Chlorophenyl)-3-(4-tetrahydropyranyl)imino-2-(pyrimidin-5-yl)amino-3,5-dihydrophenazine]	0.06 (≈ 0.124 µM)
FC(F)(F)Oc1ccc(-n2c3c/c(=N\C4CCOCC4)c(Nc4ncccn4)cc-3nc3ccccc32)cc1 [TBI-830, 5-(4-Trifluoromethoxyphenyl)-3-(4-tetrahydropyranyl)imino-2-(pyrimidin-2-yl)amino-3,5-dihydrophenazine]	0.014 (≈ 0.0263 µM)

same assay, conditions: Mycobacterium tuberculosis, H37RV, in vitro, Mycobacterium tuberculosis H37Rv strains; read-out: MIC (μg/mL) against H37Rv

SMILES	MIC [µg/mL]
COC1CCC(/N=c2\cc3n(-c4ccc(F)cc4)c4ccccc4nc-3cc2Nc2ccc(C)nc2)CC1 (centres unmarked) [TBI-1001, 5-(4-Fluorophenyl)-3-(4-methoxycyclohexyl)imino-2-(6-methyl-3-pyridyl)amino-3,5-dihydrophenazine]	0.06 (≈ 0.118 µM)
COC1CCC(/N=c2\cc3n(-c4ccc(OC(F)(F)F)cc4)c4ccccc4nc-3cc2Nc2cccnc2)CC1 (centres unmarked) [TBI-162, 5-(4-Trifluoromethoxyphenyl)-3-(4-methoxycyclohexyl)imino-2-(3-pyridyl)amino-3,5-dihydrophenazine]	0.03 (≈ 0.0536 µM)
CC(C)CN1CCC(/N=c2\cc3n(-c4ccc(F)cc4)c4ccccc4nc-3cc2Nc2cccnc2)CC1 [TBI-683, 5-(4-Fluorophenyl)-3-(N-isobutyl-4-piperidyl)imino-2-(3-pyridyl)amino-3,5-dihydrophenazine]	0.125 (≈ 0.24 µM)
Cc1ccc(-n2c3c/c(=N\C4CCOCC4)c(Nc4cccnc4C)cc-3nc3ccccc32)cc1 [TBI-323, 5-(4-Methylphenyl)-3-(4-tetrahydropyranyl)imino-2-(2-methyl-3-pyridyl)amino-3,5-dihydrophenazine]	0.057 (≈ 0.12 µM)
Cc1ccc(-n2c3c/c(=N\C4CCC(O)CC4)c(Nc4ccc(C)nc4)cc-3nc3ccccc32)cc1 (centres unmarked) [TBI-334, 5-(4-Methylphenyl)-3-(4-hydroxycyclohexyl)imino-2-(6-methyl-3-pyridyl)amino-3,5-dihydrophenazine]	0.372 (≈ 0.76 µM)
c1ccc(-n2c3c/c(=N\C4CCOCC4)c(Nc4cccnc4)cc-3nc3ccccc32)cc1 [TBI-058, 5-Phenyl-3-(4-tetrahydropyranyl)imino-2-(3-pyridyl)amino-3,5-dihydrophenazine]	0.06 (≈ 0.134 µM)
COC1CCC(/N=c2\cc3n(-c4ccc(OC(F)(F)F)cc4)c4cc(F)ccc4nc-3cc2Nc2ccc(C)nc2)CC1 (centres unmarked) [TBI-852, 7-Fluoro-5-(4-trifluoromethoxyphenyl)-3-(4-methoxycyclohexyl)imino-2-(6-methyl-3-pyridyl)amino-3,5-dihydrophenazine]	0.024 (≈ 0.0406 µM)
COc1ncccc1Nc1cc2nc3ccccc3n(-c3ccc(C)cc3)c-2c/c1=N\C1CCCCC1 [TBI-331]	0.047 (≈ 0.096 µM)
Cc1ccc(Nc2cc3nc4ccc(F)cc4n(-c4ccc(OC(F)(F)F)cc4)c-3c/c2=N\C2CCCCC2)cn1 [TBI-853, 7-Fluoro-5-(4-trifluoromethoxyphenyl)-3-cyclohexylimino-2-(6-methyl-3-pyridyl)amino-3,5-dihydrophenazine]	0.025 (≈ 0.0445 µM)
O[C@H]1CC[C@H](/N=c2\cc3n(-c4ccc(F)cc4)c4ccccc4nc-3cc2Nc2cccnc2)CC1 [TBI-921, 5-(4-Fluorophenyl)-3-(1′,4′-trans-4-hydroxycyclohexyl)imino-2-(3-pyridyl)amino-3,5-dihydrophenazine]	0.434 (≈ 0.905 µM)
COc1ncccc1Nc1cc2nc3ccccc3n(-c3ccc(C(F)(F)F)cc3)c-2c/c1=N\C1CCC(OC)CC1 (centres unmarked) [TBI-700, 5-(4-Trifluoromethylphenyl)-3-(4-methoxycyclohexyl)imino-2-(2-methoxy-3-pyridyl)amino-3,5-dihydrophenazine]	0.016 (≈ 0.0279 µM)
Cc1ncccc1Nc1cc2nc3ccccc3n(-c3ccc(F)cc3)c-2c/c1=N\C1CC1 [TBI-1014, 5-(4-Fluorophenyl)-3-cyclopropylimino-2-(2-methyl-3-pyridyl)amino-3,5-dihydrophenazine]	0.025 (≈ 0.0574 µM)
COc1ncccc1Nc1cc2nc3ccccc3n(-c3ccc(C)cc3)c-2c/c1=N\C1CCOCC1 [TBI-310, 5-(4-Methylphenyl)-3-(4-tetrahydropyranyl)imino-2-(2-methoxy-3-pyridyl)amino-3,5-dihydrophenazine]	0.03 (≈ 0.061 µM)
Brc1ccc(-n2c3c/c(=N\C4CC4)c(Nc4cccnc4)cc-3nc3ccccc32)cc1 [TBI-090, 5-(4-Bromophenyl)-3-cyclopropylimino-2-(3-pyridyl)amino-3,5-dihydrophenazine]	0.016 (≈ 0.0332 µM)
CC(C)/N=c1\cc2n(-c3cccc(OC(F)(F)F)c3)c3ccccc3nc-2cc1Nc1cccnc1 [TBI-1019]	0.057 (≈ 0.116 µM)
COc1ncccc1Nc1cc2nc3cc(F)ccc3n(-c3ccc(OC(F)(F)F)cc3)c-2c/c1=N\C1CCC(OC)CC1 (centres unmarked) [TBI-861, 8-Fluoro-5-(4-trifluoromethoxyphenyl)-3-(4-methoxycyclohexyl)imino-2-(2-methoxy-3-pyridyl)amino-3,5-dihydrophenazine]	0.058 (≈ 0.0955 µM)
COc1ncccc1Nc1cc2nc3cc(C#N)ccc3n(-c3ccc(F)cc3)c-2c/c1=N\C1CCOCC1 [TBI-1066, 8-Cyano-5-(4-fluorophenyl)-3-(4-tetrahydropyranyl)imino-2-(2-methoxy-3-pyridyl)amino-3,5-dihydrophenazine]	> 6.64

SMILES	MIC [µg/mL]
Cc1ncccc1Nc1cc2nc3ccccc3n(-c3ccccc3)c-2c/c1=N\C(C)C [TBI-073, 5-Phenyl-3-(1-methylethyl)imino-2-(2-methyl-3-pyridyl)amino-3,5-dihydrophenazine]	0.058 (≈ 0.138 µM)
COc1ncccc1Nc1cc2nc3ccccc3n(-c3ccc(Cl)cc3Cl)c-2c/c1=N\C1CCOCC1 [TBI-947, 5-(2,4-Dichlorophenyl)-3-(4-tetrahydropyranyl)imino-2-(2-methoxy-3-pyridyl)amino-3,5-dihydrophenazine]	0.06 (≈ 0.11 µM)
COc1ccc(Nc2cc3nc4ccccc4n(-c4ccccc4)c-3c/c2=N\C2CC2)cn1 [TBI-511, 5-Phenyl-3-cyclopropylimino-2-(6-methoxy-3-pyridyl)amino-3,5-dihydrophenazine]	0.177 (≈ 0.408 µM)
COC1CCC(/N=c2\cc3n(-c4ccc(F)cc4)c4ccccc4nc-3cc2Nc2cncc(C)c2)CC1 (centres unmarked) [TBI-1026]	0.121 (≈ 0.238 µM)
COc1ncccc1Nc1cc2nc3ccc(F)cc3n(-c3ccc(Cl)c(Cl)c3)c-2c/c1=N\C1CCC1 [TBI-886, 7-Fluoro-5-(3,4-dichlorophenyl)-3-cyclobutylimino-2-(2-methoxy-3-pyridyl)amino-3,5-dihydrophenazine]	0.06 (≈ 0.112 µM)
Cc1ccc(Nc2cc3nc4ccccc4n(-c4ccc(C(F)(F)F)cc4)c-3c/c2=N\C2CCCCC2)cn1 [TBI-717, 5-(4-Trifluoromethylphenyl)-3-cyclohexylimino-2-(6-methyl-3-pyridyl)amino-3,5-dihydrophenazine]	0.015 (≈ 0.0284 µM)
Cc1ccc(Nc2cc3nc4ccccc4n(-c4ccc(C(F)(F)F)cc4)c-3c/c2=N\C2CCOCC2)cn1 [TBI-696, 5-(4-Trifluoromethylphenyl)-3-(4-tetrahydropyranyl)imino-2-(6-methyl-3-pyridyl)amino-3,5-dihydrophenazine]	0.032 (≈ 0.0604 µM)
COc1ncccc1Nc1cc2nc3ccccc3n(-c3ccc(C(F)(F)F)cc3)c-2c/c1=N\C1CCC1 [TBI-728, 5-(4-Trifluoromethylphenyl)-3-cyclobutylimino-2-(2-methoxy-3-pyridyl)amino-3,5-dihydrophenazine]	0.033 (≈ 0.064 µM)
COC1CCC(/N=c2\cc3n(-c4ccc(Br)cc4)c4ccccc4nc-3cc2Nc2cccnc2)CC1 (centres unmarked) [TBI-091, 5-(4-Bromophenyl)-3-(4-methoxycyclohexyl)imino-2-(3-pyridyl)amino-3,5-dihydrophenazine]	0.062 (≈ 0.112 µM)
Cc1ccc(Nc2cc3nc4ccccc4n(-c4ccc(F)cc4)c-3c/c2=N\C2CCN(C)CC2)cn1 [TBI-901, 5-(4-Fluorophenyl)-3-(N-methyl-4-piperidyl)imino-2-(6-methyl-3-pyridyl)amino-3,5-dihydrophenazine]	0.102 (≈ 0.207 µM)
COc1ncccc1Nc1cc2nc3cc(F)ccc3n(-c3ccc(Cl)c(Cl)c3)c-2c/c1=N\C(C)C [TBI-874, 8-Fluoro-5-(3,4-dichlorophenyl)-3-(1-methylethyl)imino-2-(2-methoxy-3-pyridyl)amino-3,5-dihydrophenazine]	0.129 (≈ 0.247 µM)
Cc1ncccc1Nc1cc2nc3ccccc3n(-c3ccc(F)cc3)c-2c/c1=N\C1CCC1 [TBI-1018, 5-(4-Fluorophenyl)-3-cyclobutylimino-2-(2-methyl-3-pyridyl)amino-3,5-dihydrophenazine]	0.028 (≈ 0.0623 µM)
c1ccc(-n2c3c/c(=N\CCN4CCOCC4)c(Nc4cccnc4)cc-3nc3ccccc32)cc1 [TBI-056, 5-Phenyl-3-(2-morpholinoethyl)imino-2-(3-pyridyl)amino-3,5-dihydrophenazine]	0.25 (≈ 0.525 µM)
Cc1ncccc1Nc1cc2nc3ccccc3n(-c3ccc(Br)cc3)c-2c/c1=N\C1CCCCC1 [TBI-508, 5-(4-Bromophenyl)-3-cyclohexylimino-2-(2-methyl-3-pyridyl)amino-3,5-dihydrophenazine]	0.021 (≈ 0.039 µM)
COc1ncccc1Nc1cc2nc3ccccc3n(-c3cccc(Cl)c3)c-2c/c1=N\C1CCC1 [TBI-824, 5-(3-Chlorophenyl)-3-cyclobutylimino-2-(2-methoxy-3-pyridyl)amino-3,5-dihydrophenazine]	0.06 (≈ 0.124 µM)
Cc1ccc(Nc2cc3nc4cc(F)ccc4n(-c4ccc(Cl)c(Cl)c4)c-3c/c2=N\C2CCOCC2)cn1 [TBI-873, 8-Fluoro-5-(3,4-dichlorophenyl)-3-(4-tetrahydropyranyl)imino-2-(6-methyl-3-pyridyl)amino-3,5-dihydrophenazine]	0.076 (≈ 0.139 µM)
